Earlier results on 8 compounds are cited in US10232044B2, “Controlled release aural pressure modulator compositions and methods for the treatment of OTIC disorders” (Otonomy, Inc., priority 2008, dated 2019).

The subject of one data set is intra-ocular pressure. As to conditions: glaucoma patients.
In data set [1] the target is constitutively activated D136A mutant VP2 receptor (Homo sapiens, UniProt P30518, D136A).
Another data set concerns 8-isoprostaglandin F2α. Particulars: sensorineural hearing loss animal models, noise exposure.

The structures appear in SMILES notation. Read-outs that look alike come from different tables or passages of the source.

As to `NC(=O)CC[C@@H]1NC(=O)[C@H](Cc2ccccc2)NC(=O)[C@H](Cc2ccc(O)cc2)NC(=O)[C@@H](N)CSSC[C@@H](C(=O)N2CCC[C@H]2C(=O)N[C@@H](CCCN=C(N)N)C(=O)NCC(N)=O)NC(=O)[C@H](CC(N)=O)NC1=O` [VP], the endolymphatic hydrops result in the data set with endolymphatic hydrops (chronic administration, guinea pigs) is on record as “induces endolymphatic hydrops”; in the data set with endolymphatic hydrops (systemic administration, guinea pig), “development of endolymphatic hydrops”.

Regarding `CCCCCCCC(=O)CC[C@@H]1[C@@H](C/C=C\CCCC(=O)O)[C@@H](O)C[C@H]1O` [unoprostone], the intra-ocular pressure result with intra-ocular pressure is “reduce intra-ocular pressure”.

With `CC(C)OC(=O)CCC/C=C\C[C@@H]1[C@@H](/C=C/[C@@H](O)COc2cccc(C(F)(F)F)c2)[C@H](O)C[C@@H]1O` [travoprost], the intra-ocular pressure entry in the data set on intra-ocular pressure is given as “reduce intra-ocular pressure”.

As for `CCNC(=O)CCC/C=C\C[C@@H]1[C@@H](/C=C/[C@@H](O)CCc2ccccc2)[C@H](O)C[C@@H]1O` [bimtoprost], the intra-ocular pressure entry in the data set on intra-ocular pressure was “reduce intra-ocular pressure”.

For the compound `CC(C)OC(=O)CCC/C=C\C[C@@H]1[C@@H](CC[C@@H](O)CCc2ccccc2)[C@H](O)C[C@@H]1O` [latanoprost], the intra-ocular pressure result with intra-ocular pressure is reported as “reduce intra-ocular pressure”.

As for `CCCCC[C@H](O)/C=C/[C@@H]1[C@@H](C/C=C\CCCC(=O)O)[C@@H](O)C[C@H]1O` [minprostin F2 alpha], the intra-ocular pressure result in the data set on intra-ocular pressure is “reduce intra-ocular pressure”.

On to `CCOc1ccc2c(c1)C1(CCC(OCCN3CCOCC3)CC1)C(=O)N2S(=O)(=O)c1ccc(C(=O)NC(C)(C)C)cc1OC` (stereo not drawn) [SR-1211463], for which, in data set [1], the “behaviour at D136A mutant VP2 receptor” value is “inverse agonist”.

Regarding `O=C(O)CCC/C=C\C[C@@H]1[C@H](CNNC(=O)Nc2ccccc2)[C@H]2CC[C@@H]1O2` [SQ29548], the “noise-induced changes in cochlear blood flow and vascular conductance” value in the data set on 8-isoprostaglandin F2α is “prevents these noise-induced changes”.
